# Earlier results, collected in US20140093563A1, “FEBUXOSTAT COMPOSITIONS” (RANBAXY LABORATORIES LIMITED, priority 2011, published 2014).
smiles,measurement,value
"Cc1nc(-c2ccc(OCC(C)C)c(C#N)c2)sc1C(=O)O [febuxostat, 2-(3-cyano-4-isobutyloxyphenyl)-4-methyl-5-thiazolecarboxylic acid]",Solubility (BCS),low solubility
